Assay results from US9415039B2, “Disubstituted 3,4-diamino-3-cyclobutene-1,2-dione compounds for use in the treatment of chemokine-mediated diseases” (GALDERMA RESEARCH & DEVELOPMENT, priority 2011, dated 2016).

Columns and labels:
CXCR1 receptor = molecular target: T1, CXCR1 receptor (Homo sapiens, UniProt P25024); test: β-arrestin 2 recruitment test after CXCL8 activation, U2OS hCXCR1 β-arrestin cells; format: cell-based; details: stimulation with CXCL8 (10 nM), read-out: CXCR1 (nM), IC50 = half inhibition concentration
T1 construct: β-galactosidase enzyme-complementation fragment (PathHunter system); host or cells: U2OS
T1 sequence (P25024 1-350): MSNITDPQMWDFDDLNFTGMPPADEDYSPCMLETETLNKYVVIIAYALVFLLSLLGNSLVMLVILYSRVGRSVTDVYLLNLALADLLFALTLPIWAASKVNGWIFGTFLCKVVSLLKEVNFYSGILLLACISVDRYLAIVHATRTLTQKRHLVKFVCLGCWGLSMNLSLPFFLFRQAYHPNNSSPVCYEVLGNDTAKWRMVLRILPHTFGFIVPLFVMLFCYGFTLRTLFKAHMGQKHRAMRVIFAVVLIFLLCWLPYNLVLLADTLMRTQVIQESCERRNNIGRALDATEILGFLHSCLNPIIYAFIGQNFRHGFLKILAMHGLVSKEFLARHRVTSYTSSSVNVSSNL
Experimental: (§1) The in vitro affinity of the compounds of the present invention for the CXCR1 and CXCR2 receptors was determined on a functional test of the β-arrestin recruitment after receptor activation type.
(§2) In order to evaluate the direct interaction of the CXCR2 or CXCR1 receptor with β-arrestin 2, a β-arrestin 2 recruitment test for CXCR2 or CXCR1 based on β-galactosidase enzyme complementation (Olson K R, Eglen R M. Beta galactosidase complementation: a cell-based luminescent assay platform for drug discovery. Assay Drug Dev Technol. 2007 February; 5(1); 137-44), as established by DiscoveRx Corporation was used. The stimulation of these two cell lines with CXCL8 (10 nM) induces β-arrestin 2 recruitment, as indicated by a significant increase in the induction factor. […]
(§3) “PathHunter HEK293-CXCR2” or “U2OS hCXCR1 β-arrestin” cells (DiscoveRx Corporation) were seeded overnight at 10 000 cells/well (384-well format) in 20 μl of Opti MEM I medium. […] After incubation for 60 min at ambient temperature, the […] during the β-arrestin-CXCR2 interaction was measured for 0.3 s in an Envision 2102 Multilabel Reader (PerkinElmer Life and Analytical Sciences). The data were analyzed by means of a non-linear curve procedure using the XLFit4 exploitation software (IDBS) and the IC50 values were determined.

CXCR2 receptor = molecular target: T2, CXCR2 receptor (Homo sapiens, UniProt P25025); test: β-arrestin 2 recruitment test after CXCL8 activation, PathHunter HEK293-CXCR2 cells; format: cell-based; details: stimulation with CXCL8 (10 nM), read-out: CXCR2 (nM), IC50 = half inhibition concentration
T2 construct: β-galactosidase enzyme-complementation fragment (PathHunter system); host or cells: HEK293
T2 sequence (P25025 1-360): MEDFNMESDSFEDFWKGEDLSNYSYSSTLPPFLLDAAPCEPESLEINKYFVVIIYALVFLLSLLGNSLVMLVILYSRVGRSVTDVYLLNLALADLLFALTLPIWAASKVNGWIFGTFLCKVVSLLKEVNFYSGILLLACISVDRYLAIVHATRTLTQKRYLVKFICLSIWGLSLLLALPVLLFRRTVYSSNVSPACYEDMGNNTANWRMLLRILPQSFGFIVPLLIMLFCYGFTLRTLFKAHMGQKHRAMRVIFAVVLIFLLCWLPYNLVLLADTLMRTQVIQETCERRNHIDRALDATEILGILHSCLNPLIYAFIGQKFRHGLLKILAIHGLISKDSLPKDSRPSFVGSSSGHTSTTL
Experimental: as §1, §2, §3

Q: With Cc1ccc(C(Nc2c(Nc3cccc(C(=O)N(C)C)c3O)c(=O)c2=O)C2CCOCC2)o1 (stereo not drawn) [Example 1, 2-hydroxy-N,N-dimethyl-3-(2-{[(5-methylfuran-2-yl)-(tetrahydropyran-4-yl)methyl]amino}-3,4-dioxocyclobut-1-enylamino)benzamide] as the molecule, how does the IC50 (CXCR1 receptor) read?
A: 5440 nM

Q: What about the IC50 (CXCR2 receptor) of the same molecule?
A: 212 nM

Q: What about the melting point of the same molecule?
A: 137 to 140 °C

Q: Which IC50 (CXCR1 receptor) does the source give for Cc1ccc(C(Nc2c(Nc3cccc(C(=O)N(C)C)c3O)c(=O)c2=O)C2CCSCC2)o1 (stereo not drawn) [Example 2, 2-hydroxy-N,N-dimethyl-3-(2-{[(5-methylfuran-2-yl)-(tetrahydrothiopyran-4-yl)methyl]amino}-3,4-dioxocyclobut-1-enylamino)benzamide] here?
A: 3390 nM

Q: What about the IC50 (CXCR2 receptor) of the same molecule?
A: 111 nM

Q: And the melting point?
A: 173 to 175 °C
